Like-named read-outs stand apart in the source and are kept apart here.
Columns and labels:
[1] = target: T1, Cyclin Dependent Kinase 1/Cyclin A2 (CDK1-cycA2) (Homo sapiens, UniProt P06493); assay: CDK1-cycA2 TR-FRET (Lance) enzyme assay; type: biochemical; conditions: for Ki: Table O, enzymatic assay; for FS CDK1/CDK2: fold selectivity, enzymatic Ki ratio
T1 construct: purchased ProQinase 0134-0054-1
How it was run: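 TR-FRET (Lance) detection of phospho-4E-BP1 with a europium-labelled antibody after EDTA quench (15 mM final); signal taken as acceptor/donor ratio. Enzyme and compound were pre-incubated 30 min in HEPES pH 7.5 buffer with MgCl2, TCEP, BGG and Brij 35. Ki derived by Morrison fit.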

[2] = target: T2, Cyclin Dependent Kinase 2/Cyclin E1 (CDK2-cycE1) (Homo sapiens, UniProt P24941); assay: CDK2-cycE1 TR-FRET (LANCE) enzyme assay; type: biochemical; conditions: for Ki: enzymatic assay, read-out: CDK2 Ki; for FS CDK1/CDK2 / FS CDK4/CDK2: fold selectivity; for FS CDK1/CDK2: enzymatic CDK1 Ki over CDK2 Ki; for FS CDK4/CDK2: enzymatic CDK4 Ki over CDK2 Ki
T2 construct: purchased ProQinase 0050-0055-1
How it was run: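 Kinase reaction buffer: 50 mM HEPES pH 7.5, 10 mM MgCl2, 2 mM TCEP, 0.05% BGG, 0.01% Brij 35, with 30 min compound–enzyme pre-incubation.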

[3] = target: T3, Cyclin Dependent Kinase 4/Cyclin D3 (CDK4-cycD3) (Homo sapiens, UniProt P11802); assay: CDK4-cycD3 TR-FRET (LANCE) enzyme assay; type: biochemical; conditions: for Ki: Table O, enzymatic assay; for FS CDK4/CDK2: fold selectivity, enzymatic Ki ratio
T3 construct: purchased Carna Biosciences 04-105
T3 sequence (P11802 whole entry): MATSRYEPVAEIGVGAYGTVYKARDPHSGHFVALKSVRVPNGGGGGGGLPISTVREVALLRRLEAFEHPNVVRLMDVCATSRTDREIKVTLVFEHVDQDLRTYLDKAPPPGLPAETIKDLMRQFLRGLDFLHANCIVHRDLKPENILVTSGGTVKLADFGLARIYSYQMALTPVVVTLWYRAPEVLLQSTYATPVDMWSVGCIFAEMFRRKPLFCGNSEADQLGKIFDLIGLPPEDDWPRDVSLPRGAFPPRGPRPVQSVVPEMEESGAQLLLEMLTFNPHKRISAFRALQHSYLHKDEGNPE
T3 sequence (P30281 whole entry partner): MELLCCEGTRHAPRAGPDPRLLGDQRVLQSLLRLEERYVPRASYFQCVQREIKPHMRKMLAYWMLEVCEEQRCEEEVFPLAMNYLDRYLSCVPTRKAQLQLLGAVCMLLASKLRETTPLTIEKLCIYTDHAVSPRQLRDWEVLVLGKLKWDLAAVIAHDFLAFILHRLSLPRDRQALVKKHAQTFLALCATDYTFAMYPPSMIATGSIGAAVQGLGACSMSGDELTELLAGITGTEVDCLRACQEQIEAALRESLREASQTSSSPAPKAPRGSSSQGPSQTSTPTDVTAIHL
How it was run: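 Compound dose responses pre-incubated 30 min with enzyme mix in 50 mM HEPES pH 7.5, 10 mM MgCl2, 2 mM TCEP, 0.05% BGG, 0.01% Brij 35. Reaction quenched with EDTA (15 mM final); Eu-anti-phospho-4E-BP1 TR-FRET detection, acceptor/donor ratio. Ki derived by Morrison equation.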

[4] = tested on: OVISE (JCRB1043, CCNE1-amplified); assay: OVISE EdU incorporation cell proliferation assay (CDK2-dependent); type: cell-based; conditions: for IC50 / FS SKOV-3/OVISE / FS p-H3/OVISE: Table O; for IC50: cellular assay, read-out: CDK2 OVISE IC50; for FS SKOV-3/OVISE / FS p-H3/OVISE: fold selectivity; for FS SKOV-3/OVISE: cellular SKOV-3 IC50 over OVISE IC50; for FS p-H3/OVISE: cellular p-H3 IC50 over OVISE IC50
How it was run: (§1)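 EdU incorporation (0.5 μM final, last 8 h) follows a 16 h compound exposure at 37 °C, 5% CO2 in RPMI plus 10% FBS, 0.5% DMSO. After fixation, imaging scores EdU-positive cells; a 4-parameter logistic fit of that fraction gives IC50.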

SKOV-3 (ATCC HTB-77) = assay: SKOV-3 EdU incorporation cell proliferation assay (CDK4/6-dependent); type: cell-based; conditions: for IC50: Homo sapiens, SK-OV-3, Table O, cellular assay, read-out: CDK4/6 SKOV-3 IC50; for FS SKOV-3/OVISE: fold selectivity, cellular IC50 ratio
How it was run: as §1

HCT116 cells = assay: p-H3 HCT-116 mitotic release cell proliferation assay (cellular CDK1); type: cell-based; conditions: Homo sapiens, HCT-116; Table O, cellular assay; read-out: CDK1 p-H3 IC50
How it was run: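 Phospho-Histone H3 (Ser10) in lysates was quantified by a two-antibody HTRF FRET read (≥2 h, room temperature). Before this, HCT116 cells held in mitosis by 16 h of 500 nM nocodazole were treated with compound for 4 h at 37 °C, 0.1% DMSO.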

T1 sequence (P06493 whole entry): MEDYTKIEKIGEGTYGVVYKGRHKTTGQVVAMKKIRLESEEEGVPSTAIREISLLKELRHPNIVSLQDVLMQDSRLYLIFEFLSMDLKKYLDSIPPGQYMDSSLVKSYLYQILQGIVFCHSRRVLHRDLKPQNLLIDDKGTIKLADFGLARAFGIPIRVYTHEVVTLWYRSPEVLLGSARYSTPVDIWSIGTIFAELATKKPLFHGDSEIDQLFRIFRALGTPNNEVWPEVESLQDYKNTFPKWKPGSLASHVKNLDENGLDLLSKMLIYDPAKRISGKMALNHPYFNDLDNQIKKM
T1 sequence (P20248 whole entry partner): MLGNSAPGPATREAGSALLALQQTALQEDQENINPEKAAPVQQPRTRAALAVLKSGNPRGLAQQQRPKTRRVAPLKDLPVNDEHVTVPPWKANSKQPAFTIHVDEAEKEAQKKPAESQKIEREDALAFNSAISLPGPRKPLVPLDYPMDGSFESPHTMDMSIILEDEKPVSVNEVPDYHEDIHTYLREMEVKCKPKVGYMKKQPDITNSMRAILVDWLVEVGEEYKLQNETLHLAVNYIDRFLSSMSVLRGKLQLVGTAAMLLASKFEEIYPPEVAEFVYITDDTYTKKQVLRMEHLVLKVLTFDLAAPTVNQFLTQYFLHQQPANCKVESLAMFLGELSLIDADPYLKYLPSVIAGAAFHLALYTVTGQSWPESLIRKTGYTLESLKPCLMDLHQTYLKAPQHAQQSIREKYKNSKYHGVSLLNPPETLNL

| Structure (SMILES) | Ki [1] [nM] | Ki ([2]; Table O) [nM] | FS CDK1/CDK2 ([2]; Table O) | FS CDK4/CDK2 ([2]; Table O) | Ki [3] [nM] | IC50 [4] [nM] | FS SKOV-3/OVISE [4] | FS p-H3/OVISE [4] | IC50 (SKOV-3 (ATCC HTB-77)) [nM] | IC50 (HCT116 cells) [nM] | further results |
| --- | --- | --- | --- | --- | --- | --- | --- | --- | --- | --- | --- |
| CC(C)(C)NC(=O)O[C@@H]1CC[C@H](c2cc(Nc3ccncc3)n[nH]2)C1 [Example 4H, (1R,3S)-3-(3-(pyridin-4-ylamino)-1H-pyrazol-5-yl)cyclopentyl tert-butylcarbamate] | 180 | 2 | 90 | 55 | 110 | 38 | 25 | 1.4 | 950 | 54 | FS CDK1/CDK2 increased over Comparator D, (+) sign ([1]; Table R): (+); FS CDK1/CDK2 ([1]; Table R): 90; FS CDK1/CDK2 increased over Comparator E, (+) sign ([1]; Table S): (+); FS CDK1/CDK2 ([1]; Table S): 90; Ki ([2]; Table R): 2 nM; CDK2 Ki fold change in potency versus Comparator D ([2]; Table R, in brackets after CDK2 Ki): 1.4 fold; Ki ([2]; Table S): 2 nM; CDK2 Ki fold change in potency versus Comparator E ([2]; Table S, in brackets after CDK2 Ki): 0.3 fold; FS CDK4/CDK2 increased over Comparator D, (+) sign ([3]; Table R): (+); FS CDK4/CDK2 ([3]; Table R): 55; FS CDK4/CDK2 increased over Comparator E, (+) sign ([3]; Table S): (+); FS CDK4/CDK2 ([3]; Table S): 55; CDK2 cell potency compared with Comparator E ([4]; CDK2 OVISE cellular assay data): more potent CDK2 cell inhibitors compared to Comparator E; CDK2 OVISE IC50 fold change in potency versus Comparator D ([4]; Table R, in brackets after OVISE IC50): 100 fold; CDK2 OVISE IC50 fold change in potency versus Comparator E ([4]; Table S, in brackets after OVISE IC50): 4.4 fold; selectivity for CDK2 over CDK4 compared with Comparator E (SKOV-3 (ATCC HTB-77); SKOV-3/OVISE fold-selectivity cellular assay data): increase in selectivity for CDK2 over CDK4; FS SKOV-3/OVISE increased over Comparator D, (+) sign (SKOV-3 (ATCC HTB-77); Table R): (+); FS SKOV-3/OVISE (SKOV-3 (ATCC HTB-77); Table R): 25; FS SKOV-3/OVISE increased over Comparator E, (+) sign (SKOV-3 (ATCC HTB-77); Table S): (+); FS SKOV-3/OVISE (SKOV-3 (ATCC HTB-77); Table S): 25 |
| CN(C(=O)O[C@@H]1CC[C@H](c2cc(Nc3ccc(=O)n(C)n3)n[nH]2)C1)C(C)(C)C [Example 6B, (1R,3S)-3-(3-((1-methyl-6-oxo-1,6-dihydropyridazin-3-yl)amino)-1H-pyrazol-5-yl)cyclopentyl tert-butyl(methyl)carbamate] | 0.78 | < 0.1 | >12 | >120 | 7.4 | 27 | 14 | 0.32 | 390 | 8.7 | – |
| Cn1cnc(Nc2cc([C@H]3CC[C@@H](OC(=O)NC45CC(C4)C5)C3)[nH]n2)cc1=O [Example 9B, (1R,3S)-3-(3-((1-methyl-6-oxo-1,6-dihydropyrimidin-4-yl)amino)-1H-pyrazol-5-yl)cyclopentyl bicyclo[1.1.1]pentan-1-ylcarbamate] | 12 | 0.35 | 34 | 60 | 21 | 33 | 14 | 1.4 | 470 | 46 | – |
| O=C(NC12CC(C1)C2)O[C@@H]1CC[C@H](c2cc(Nc3cccnn3)n[nH]2)C1 [Example 3, (1R,3S)-3-(3-(pyridazin-3-ylamino)-1H-pyrazol-5-yl)cyclopentyl bicyclo[1.1.1]pentan-1-ylcarbamate] | 47 | 1.8 | 26 | 61 | 110 | 150 | 15 | 0.49 | 2300 | 73 | – |
